In assay [1] the test system is SKOV-3 cells. The experiment in a line: TMRE-based detection of mitochondrial membrane potential (ΔΨm). Format: cell-based, human. The conditions noted are these: 1 μM, 72 h, fresh compound every 24 h; three independent experiments; p < 0.01 vs untreated. The text has this:
The apoptosis of SKOV3 cells by Con-3, Con-7 and mitoxantrone was further validated in a mitochondrial membrane potential (ΔΨm) assay, which utilizes the cell-permeable, cationic dye, tetramethylrhodamine ethyl ester (TMRE) to detect the ΔΨm. TMRE accumulates in healthy mitochondria with polarized membrane, but not in the mitochondria of apoptotic cells. Mitochondrial permeabilization and the loss of the mitochondrial transmembrane potential are associated with cell apoptosis and a drop in fluorescence of TMRE [40].
Figure 8 TMRE-based detection of mitochondrial membrane potential (ΔΨm) of SKOV-3 cells. The change in ΔΨm was detected using TMRE after treatment of SKOV3 cells with 1μM Con-3, Con-7 or mitoxantrone for 72 h. The TMRE fluorescence intensities are represented as histogram bars for results obtained in three independent experiments. […] The data are expressed as the mean ± SEM.
The reduced mitochondrial membrane potential (ΔΨm) that accompanies apoptosis was detected using the fluorescent dye, tetramethylrhodamine ethyl ester (TMRE) (Ex/Em: 530/580 nm), (Cayman, TMRE Mitochondrial Membrane Potential Assay Kit, Item No. 701310). SKOV-3 cells were grown on 60 mm tissue culture dishes to achieve ca. 60% confluence. Monolayers of these cells were treated for a total of 72 h using RPMI 1640 containing 1 μM each of Con-3, Con-7 or mitoxantrone. At the end of each consecutive 24 h treatment period, the test solutions were removed and replaced with new media containing fresh test compounds. After 72 h TMRE was added to each dish to a final concentration of 5 μM. After a 30 min exposure to TMRE, the media was removed so that the cell monolayers could be dispersed using 0.25% trypsin-EDTA. The resultant cell suspensions were subjected to centrifugation and repeated resuspension in a standard extracellular salt solution (SES). […] The TMRE fluorescence intensities monitored from the individual wells were measured using a Flexstation 3 microplate reader (Molecular Devices, Sunnyvale, CA, USA).

In assay [2] the test system is SKOV-3 cells. The experiment in a line: Confocal microscopy of intracellular mitoxantrone fluorescence, quantified with Image J. The class given is cell-based, human. The conditions noted are these: 6 h; for localization of mitoxantrone fluorescence, in words: 1 μM, Hoechst nuclear stain; for effect of cisplatin on intracellular accumulation of mitoxantrone, in words: 1 μΜ, cisplatin 30 μg/mL for 1 h before treatment.
Source text: To determine the accumulation of mitoxantrone within the SKOV-3 cells, we used confocal microscopy, exploiting the ability of mitoxantrone to fluoresce. Specifically, the excitation maxima of mitoxantrone are at 610 and 660 nm, whereas its emission maximum is at 685 nm. To stain the nuclei, we used the Hoechst dye. […] In contrast, the fluorescence signal was absent in untreated cells.
(§1) Figure 9 Confocal microscopy images of SKOV-3 cells treated with or without the GnRH-mitoxantrone conjugates, Con-3, Con-7 or mitoxantrone at a concentration of 1 μΜ for 6 h at 37 °C. At the end of the incubation, the cell nuclei were stained with the DNA-staining Hoechst 33342 dye and confocal fluorescent images were obtained after sequential excitation at 350 nm (for the Hoechst dye) and 638 nm (for the mitoxantrone). The emission filters of 461 nm and 650 nm–700 nm were used for collecting blue (Hoechst dye) and red (mitoxantrone) signals in separate channels. The left images show the nuclei staining with Hoechst dye (blue), whereas the middle ones depict the mitoxantrone fluorescence (red). The right images were created by merging the […] and middle ones and depict the localization of mitoxantrone (red) in both the cytoplasm and the nuclei. The figures are shown from a representative experiment performed three times with similar results.
We hypothesized that the GnRH-conjugated mitoxantrone of Con-3 and Con-7 entered the SKOV-3 cells after the reduction in the disulfide bond linking the GnRH analogs with mitoxantrone and subsequent release of the latter from the conjugates. This chemical reaction could be accomplished by the thioredoxin system, which is overexpressed in cancer cells and reduces the disulfide bonds of proteins and peptides. To verify this hypothesis, we incubated the SKOV-3 cells with cisplatin at a concentration of 30 μg/mL for 1 h before treating them with Con-3 or Con-7 conjugates. Cisplatin is a potent inhibitor of the thioredoxin system.
as §1, with “Figure 10” for “Figure 9”, “with” for “with or without”, “conjugates, Con-3 or” for “conjugates, Con-3,”, “Con-7 (1” for “Con-7 or mitoxantrone at a concentration of 1”, “6 h)” for “6 h”, “37 °C, in the presence or absence of cisplatin. Cisplatin was added to the cells 1 h before their incubation with the GnRH-mitoxantrone conjugates.” for “37 °C.”
Figure 11 Confocal microscopy images of SKOV-3 cells treated with mitoxantrone (1 μΜ for 6 h) at 37 °C, in the presence or absence of cisplatin. Cisplatin was added to the cells 1 h before their incubation with mitoxantrone. At the end of the incubation, the cell nuclei were stained with the DNA-staining Hoechst 33342 dye and confocal fluorescent images were obtained after sequential excitation at 350 nm (for the Hoechst dye) and 638 nm (for the mitoxantrone). The emission filters of 461 nm and 650 nm–700 nm were used for collecting blue (Hoechst dye) and red (mitoxantrone) signals in separate channels. The left images show the nuclei staining with Hoechst dye (blue), whereas the middle ones depict the mitoxantrone fluorescence (red). […]

The results in this text go back to paper PMC11397358, “Cytotoxic Activity of Novel GnRH Analogs Conjugated with Mitoxantrone in Ovarian Cancer Cells” (Molecules, 2024).

`CCNC(=O)[C@@H]1CCCN1C(=O)[C@H](CCCNC(=N)N)NC(=O)[C@H](CC(C)C)NC(=O)[C@@H](CSSCCC(=O)OCCNCCNc1ccc(NCCNCCO)c2c1C(=O)c1c(O)ccc(O)c1C2=O)NC(=O)[C@H](Cc1ccc(O)cc1)NC(=O)[C@H](CO)NC(=O)[C@H](Cc1c[nH]c2ccccc12)NC(=O)[C@H](Cc1c[nH]cn1)NC(=O)[C@@H]1CCC(=O)N1` [Con-3]: the “TMRE accumulation / fluorescence (mitochondrial membrane potential), in words” value (from here on “TMRE accumulation / fluorescence”) in the assay on SKOV-3 cells [1] was “significantly reduced the accumulation of the TMRE”. Further, in the assay with SKOV-3 cells [2], the “localization of mitoxantrone fluorescence, in words” value (shortened to “localization”) was “detected in both the cytoplasm and nucleus”; the “effect of cisplatin on intracellular accumulation of mitoxantrone, in words” value (“effect of cisplatin” below) is reported as “abolished the accumulation of mitoxantrone”.

Consider `CCNC(=O)[C@@H]1CCCN1C(=O)[C@H](CCCNC(=N)N)NC(=O)[C@H](CC(C)C)NC(=O)[C@@H](CCCCNC(=O)CCCCCNC(=O)CCSSCC(=O)OCCNCCNc1ccc(NCCNCCO)c2c1C(=O)c1c(O)ccc(O)c1C2=O)NC(=O)[C@H](Cc1ccc(O)cc1)NC(=O)[C@H](CO)NC(=O)[C@H](Cc1c[nH]c2ccccc12)NC(=O)[C@H](Cc1c[nH]cn1)NC(=O)[C@@H]1CCC(=O)N1` [Con-7], for which the “TMRE accumulation / fluorescence” value in the assay with SKOV-3 cells [1] is “significantly reduced the accumulation of the TMRE”. Further, in the assay with SKOV-3 cells [2], the “localization” value was “detected in both the cytoplasm and nucleus”; the “effect of cisplatin” value is “abolished the accumulation of mitoxantrone”.

As to `O=C1c2c(O)ccc(O)c2C(=O)c2c(NCCNCCO)ccc(NCCNCCO)c21` [mitoxantrone], in the assay on SKOV-3 cells [1], the “TMRE accumulation / fluorescence” value is reported as “significantly reduced the accumulation of the TMRE”. In the assay on SKOV-3 cells [2], the “localization” value is “detected in both the cytoplasm and nucleus”; the “effect of cisplatin” value is listed as “did not affect the intracellular accumulation”.
